≈ marks a conversion by molar mass, not a printed value. Where a name gives a salt, the structure may show the parent alone. Read-outs that look alike come from different tables or passages of the source. Bounds are passed on as bounds.

The test system of experiment [1] is thermophilic bacteria. The experiment in a line: determination of MIC by stepwise addition until stabilization of the pH, 65° C. It counts as cell-based, thermophilic bacteria (mixed culture). The protocol: To illustrate the antimicrobial activity within the scope of sugar production, examples are carried out with […] compounds by way of example. […] Upon the growth of thermophilic bacteria, the pH drops progressively. This indicates a microorganism-caused acid formation. […] The fatty acid compounds used in this Example are myristic acid and lauric acid, and their potassium salts, respectively. In this case, the acids were used both individually and in a 1:1 mixture, the salts were exclusively used in a 1:1 mixture.

In experiment [2] the test system is thermophilic microorganisms. The experiment can be described thus: germ-inhibiting activity (acid formation) under sugar production conditions, general statements. The experiment is classed as cell-based. The protocol:
If at 35-45° C., i.e. at those temperatures, at which it is usually worked in microbiology, a culture medium is inoculated with non-sterile crude juice from a sugar beet extraction, in most cases it is difficult to stop, by the addition of fatty acids, an acid formation recognizable by a drop in the pH (particularly in mixed cultures in which insensitive microorganism can prevail). On the other hand, the acid formation at 55° C. and 65° C. is blocked by fatty acids, depending on the chain lengths, at concentrations of from 4 to 40 mg/l over a period of time of from 1 to 10 hours. While a maximum of C11-C12 is indicated for the effects observed at normal temperature (Ullmann 1975), for thermophilic microorganisms at the higher temperature the effective maximum lies at C14 (myristic acid)
(§1) If a sugar-containing substrate, e.g. a sugar-containing liquid culture medium, as it is common in microbiology, is either non-sterilized or incubated after inoculation with a bacterial strain, an acid formation will occur which is the easiest to recognize by a drop in the pH. The same phenomenon will occur when incubating normal sugar-containing plant juices, e.g. beet juice. In an industrial process, e.g. in the recovery of sugar juice from sugar beets, a drop in the pH by degradation of sugar means a loss of sugar and a need for an alkalizing agent. Moreover, a drop in the pH with an increase in the germ content in the substrate often is associated with an unpleasant gas and nitrite formation. This arrangement also forms an efficient system for determining the germ-inhibiting activity of substances within the scope of the sugar production process.
If during such an acid formation caused by thermophilic microorganisms at higher temperatures, for instance a solution of fatty acid compounds according to the invention is added, the acid formation and the drop in the pH associated therewith will stop starting from a certain concentration of 10 ppm. Thus, the disadvantages associated with the acid formation can be avoided by the addition of myristic acid, e.g., to a sugar-containing substrate. […]

The subject of experiment [3] is thermophilic bacteria. The experiment can be described thus: pH drop (acid formation) in liquid culture medium inoculated with crude juice from sugar beet extraction, 65° C. The experiment is classed as cell-based, thermophilic bacteria (mixed culture). As to conditions: for behavior in such an example (effect on pH drop): as Example 2, compared with palmitic acid (basic effect lasting only a very short period); for concentration at which the pH drop is stopped / effect reached: additions of 10 mg/l. The method, then:
as §1, with “formation.” for “formation. This arrangement also forms an efficient system for determining the germ-inhibiting activity of substances within the scope of the sugar production process.”
A liquid culture medium, as commonly used in microbiology and consisting of 10 g of Bacto-peptone, 5 g of meat extract, 5 g of yeast extract, 1 g of glucose, 1 g of K2HPO4, 0.1 g of MgSO4*7H2O and 0.01 g of FeSO4*7H2O per liter of distilled water, is sterilized in conventional manner for 20 min at 120° C. and inoculated, in a vessel kept at a temperature of 65° C., with 20 ml of crude juice from a large-scale sugar beet extraction, wherein the pH is registered on a recorder. Upon the growth of thermophilic bacteria, the pH drops progressively. This indicates a microorganism-caused acid formation.
A mixed culture according to Example 1 is prepared.

Setting [4] is: dissolved in ethanol, 10 mg/l steps, maximum 150 mg/l, 65° C., read-out: Min. Inhibitory Conc. (MIC).
Where [5] appears, read: Time 4.50 h, 3×10 mg/l added between pH 6.74 and 6.49, 65° C.
[6] abbreviates: Time 4.75 h, total 30 mg/l, 65° C.
The mark [7] stands for this setting: Time 5 h, total 30 mg/l, 65° C.
Where [8] appears, read: Time 6 h, total 30 mg/l, 65° C.
The mark [9] stands for this setting: Time 7 h, total 30 mg/l, 65° C.
The mark [10] stands for this setting: Time 8 h, total 30 mg/l, 65° C.
Where [11] appears, read: Time 9 h, total 30 mg/l, 65° C.
The mark [12] stands for this setting: Time 10 h, total 30 mg/l, 65° C.
[13] abbreviates: Time 6 h, 10 mg/l as potassium salt added at pH 6.46 (5 h), 65° C.
Setting [14] is: Time 7 h, 10 mg/l as potassium salt added at pH 6.46 (5 h), 65° C.
Setting [15] is: Time 8 h, 10 mg/l as potassium salt added at pH 6.46 (5 h), 65° C.
Setting [16] is: Time 9 h, 10 mg/l as potassium salt added at pH 6.46 (5 h), 65° C.
[17] abbreviates: Time 11 h, 10 mg/l as potassium salt added at pH 6.46 (5 h), 65° C.
Where [18] appears, read: Time 13 h, 10 mg/l as potassium salt added at pH 6.46 (5 h), 65° C.
[19] abbreviates: Time 15 h, 10 mg/l as potassium salt added at pH 6.46 (5 h), 65° C.
The mark [20] stands for this setting: Time 17 h, 10 mg/l as potassium salt added at pH 6.46 (5 h), 65° C.
The mark [21] stands for this setting: Time 6.00 h, 10 mg/l added at pH 6.52 (5.10 h), 65° C.
Setting [22] is: Time 6.50 h, 10 mg/l added at pH 6.52 (5.10 h), 65° C.
Where [23] appears, read: Time 7 h, 10 mg/l added at pH 6.52 (5.10 h), 65° C.
The mark [24] stands for this setting: Time 8 h, 10 mg/l at pH 6.52 and 4×10 mg/l between pH 6.49 and 6.36, 65° C.
Setting [25] is: Time 9 h, total 50 mg/l, 65° C.

On to `CCCCCCCCCCCCCC(=O)OCC` [Ethyl-Myristate, reference compound], for which the MIC with thermophilic bacteria [1] (setting [4]) is above 150 µg/mL.
Turning to `CCCCCCCCCCCCCCO` [Myristyl Alcohol, 1-tetradecanol], the effective concentration in experiment [2] was at most 10 ppm. The MIC with thermophilic bacteria [1] (setting [4]) amounted to 10 µg/mL (≈ 46.6 µM).
For the compound `CCCCCCCCCCCCCC(=O)OCCC` [Propyl-Myristate, reference compound], the MIC in the experiment with thermophilic bacteria [1] (setting [4]) was above 150 µg/mL.
For `CCO` [alcohol], the “amount that impairs such a culture” value in the experiment on thermophilic bacteria [3] (mixed culture, 65° C.) was 40-60 ml alcohol per liter culture liquid.
`CCCCCCCCCCCCCCCCCCCCCC(=O)O` [behenic acid, reference compound]: the “behavior in such an example (effect on pH drop)” value (“behavior in such an example” for short) in the experiment on thermophilic bacteria [3] was “does not exhibit any effect”.
For the compound `CCCCCCCCCCCC(=O)O` [lauric acid], in the experiment on thermophilic bacteria [3] (20 mg/l (two additions), mixed culture, 65° C.), the “effect on pH drop” value was “does not have any effect”. The pH is recorded as 6.49 with thermophilic bacteria [3] (setting [5]); 6.49 in the experiment on thermophilic bacteria [3] (setting [6]); 6.49 with thermophilic bacteria [3] (setting [7]); 6.50 in the experiment on thermophilic bacteria [3] (setting [8]); 6.51 in the experiment with thermophilic bacteria [3] (setting [9]); 6.52 in the experiment with thermophilic bacteria [3] (setting [10]). Moreover, the pH in the experiment with thermophilic bacteria [3] (setting [11]) was 6.52; in the experiment with thermophilic bacteria [3] (setting [12]), 6.53. Further, the ΔpH/h in the experiment on thermophilic bacteria [3] (setting [5]) is on record as 1.00; with thermophilic bacteria [3] (setting [6]), 0.00; in the experiment on thermophilic bacteria [3] (setting [7]) it was 0.00; with thermophilic bacteria [3] (setting [8]), −0.01; in the experiment with thermophilic bacteria [3] (setting [9]) it was −0.01; with thermophilic bacteria [3] (setting [10]), −0.01. Further, the ΔpH/h with thermophilic bacteria [3] (setting [11]) is 0.00; with thermophilic bacteria [3] (setting [12]), −0.01. Moreover, the “concentration at which the pH drop is stopped / effect reached” value in the experiment on thermophilic bacteria [3] (mixed culture, 65° C.) was 30 mg/l. For the same compound, the MIC came out at 18 µg/mL (≈ 89.9 µM) in the experiment with thermophilic bacteria [1] (dissolved in ethanol, steps of 2 mg/l, read-out: Min. Inhibitory Conc. (MIC)) and 18000 µg/mL (≈ 89900 µM) in the experiment on thermophilic bacteria [1] (text summary of Example 9, read-out: MIC (concentration successfully used)).
Take `CCCCCCCCCCCCCC(=O)OC` [methyl myristate]: the inhibitory concentration entry in experiment [2] is reported as “approximately 100 mg/ml”.
On to `CCCCCCCCCCCCCC(=O)O` [myristic acid as potassium salt, myristic acid], for which the “duration of effectiveness (pH drop stopped)” value in the experiment with thermophilic bacteria [3] (10 mg/l, mixed culture, 65° C.) is on record as “at least 12 h”. The “effect on pH drop” value with thermophilic bacteria [3] (10 mg/l, mixed culture, 65° C.) is “suddenly and lastingly be stopped”. Also, the pH in the experiment with thermophilic bacteria [3] (setting [13]) worked out at 6.46; with thermophilic bacteria [3] (setting [14]) it was 6.46; in the experiment with thermophilic bacteria [3] (setting [15]) it was 6.47; with thermophilic bacteria [3] (setting [16]), 6.46; in the experiment with thermophilic bacteria [3] (setting [17]) it was 6.46; in the experiment on thermophilic bacteria [3] (setting [18]), 6.46. Moreover, the pH in the experiment with thermophilic bacteria [3] (setting [19]) and in the experiment with thermophilic bacteria [3] (setting [20]) was 6.45 in each case. For the same compound, the ΔpH/h with thermophilic bacteria [3] (setting [13]) is reported as 0.00; in the experiment on thermophilic bacteria [3] (setting [14]), 0.00; in the experiment on thermophilic bacteria [3] (setting [15]), −0.01; in the experiment on thermophilic bacteria [3] (setting [16]), 0.01; with thermophilic bacteria [3] (setting [17]), 0.00; in the experiment on thermophilic bacteria [3] (setting [18]), 0.00. In addition, the ΔpH/h with thermophilic bacteria [3] (setting [19]) and in the experiment on thermophilic bacteria [3] (setting [20]) was 0.00 throughout.
Turning to `CCCCCCCC/C=C\CCCCCCCC(=O)O` [oleic acid], in the experiment on thermophilic bacteria [3], the “behavior in such an example” value was “Quite similar”.
As for `CCCCCCCCCCCCCCCC(=O)O` [palmitic acid], in the experiment with thermophilic bacteria [3] (10 mg/l, mixed culture, 65° C.), the “duration of effectiveness (pH drop stopped)” value is recorded as 1.5-2 h. Also, the “effect on pH drop” value in the experiment on thermophilic bacteria [3] (10 mg/l, mixed culture, 65° C.) is reported as “immediately completely stopped”. Also, the pH with thermophilic bacteria [3] (setting [21]) is 6.53; with thermophilic bacteria [3] (setting [22]), 6.53; in the experiment on thermophilic bacteria [3] (setting [23]), 6.49; in the experiment on thermophilic bacteria [3] (setting [24]), 6.36; with thermophilic bacteria [3] (setting [25]), 6.29. The ΔpH/h with thermophilic bacteria [3] (setting [21]) was −0.01; with thermophilic bacteria [3] (setting [22]), 0.00; with thermophilic bacteria [3] (setting [23]) it was 0.08; in the experiment with thermophilic bacteria [3] (setting [24]) it was 0.13; in the experiment with thermophilic bacteria [3] (setting [25]), 0.07. In the experiment on thermophilic bacteria [3] (renewed addition up to total 50 mg/l, retarded from 0.13), this compound came in with a pH drop of 0.07 pH units per hour.
Regarding `C/C=C/C=C/C(=O)O` [sorbic acid, reference compound], the “concentration at which the pH drop is stopped / effect reached” value in the experiment on thermophilic bacteria [3] (mixed culture, 65° C.) is given as above 150 mg/l.
In the case of `CCCCCCCCCCCCCCCCCC(=O)O` [stearic acid], the “behavior in such an example” value with thermophilic bacteria [3] is “Quite similar”.
`CCCCCCCCCCCCCCCCCCO` [stearyl alcohol]: the effective concentration entry in experiment [2] was “markedly higher concentrations have to be employed”.
On to `CCCCCCCCCCC(=O)O` [undecanoic acid], for which the “concentration at which the pH drop is stopped / effect reached” value in the experiment on thermophilic bacteria [3] (mixed culture, 65° C.) is 40 mg/l.

Values taken from patent publication US7575640B2, “Method for producing sugar and sugar-containing products from sugar-containing plant raw materials” (Zuckerforschung Tulln Gesellschaft m.b.H., priority 2003, dated 2009).
